Measurements as given in US20090291938A1 (TAKEDA PHARMACEUTICAL COMPANY LIMITED, priority 2007, published 2009).

Tested on: HT29 human colorectal adenocarcinoma cell line
Assay: cell proliferation assay (Cell Titer-Glo luminescent cell viability assay)
Format: cell-based
Conditions: HT-29, 72 h, read-out: pIC50 (converted)
Protocol: The cell culture and proliferation assay may be carried out as follows: the HT29 human colorectal adenocarcinoma cell line (ATCC, USA) was maintained in Dulbecco's Modified Eagle's Medium (Invitrogen, USA) supplemented with 10% fetal bovine serum (JRH, USA). The cell proliferation assay was carried out with the Cell Titer-Glo luminescent cell viability assay (Promega, USA) according to the manufacture's instruction after the 72 hr treatment of the cells in the presence of the compounds. The cell viability was shown as a percentage of DMSO treated cells.

SMILES | IC50 [nM]
CN1CCC(NC(=O)c2ccc(Nc3ncc4c(n3)N(C3CCCC3)CC(C)(C)C(=O)N4C)c(O)c2)CC1 [Compound 121] | 3.16 to 10
CN1CCC(NC(=O)c2ccc(Nc3ncc4c(n3)N(C3CCCC3)CC(C)(C)C(=O)N4C)c(OC(F)F)c2)CC1 [Compound 127, 4-(9-Cyclopentyl-5,7,7-trimethyl-6-oxo-6,7,8,9-tetrahydro-5H-pyrimido[4,5-b][1,4]diazepin-2-ylamino)-3-(difluoromethoxy)-N-(1-methylpiperidin-4-yl)benzamide] | > 10
COc1cc(C(=O)NC2CCN(C)CC2)ccc1Nc1ncc2c(n1)N(C1CCCC1)CC(C)(C)C(=O)N2C [Compound 86, 4-(9-cyclopentyl-5,7,7-trimethyl-6-oxo-6,7,8,9-tetrahydro-5H-pyrimido[4,5-b][1,4]diazepin-2-ylamino)-3-methoxy-N-(1-methylpiperidin-4-yl)benzamide] | 3.16 to 10
CC(C)Oc1cc(C(=O)NC2CCN(C)CC2)ccc1Nc1ncc2c(n1)N(C1CCCC1)CC(C)(C)C(=O)N2C [Compound 122, 4-(9-cyclopentyl-5,7,7-trimethyl-6-oxo-6,7,8,9-tetrahydro-5H-pyrimido[4,5-b][1,4]diazepin-2-ylamino)-3-isopropoxy-N-(1-methylpiperidin-4-yl)benzamide] | > 10

Same assay, conditions: HT-29, cell proliferative assay, HT29 cells, 72 hr treatment, values given as ranges, read-out: pIC50 (converted)

IC50 [nM] | SMILES
< 1 | C=CC[C@H]1CN(C2CCCC2)c2nc(Nc3ccc(C(=O)N[C@H]4CC[C@H](O)CC4)cc3OC)ncc2N(C)C1=O [Compound 197, 4-((S)-7-allyl-9-cyclopentyl-5-methyl-6-oxo-6,7,8,9-tetrahydro-5H-pyrimido[4,5-b][1,4]diazepin-2-ylamino)-N-((1R,4R)-4-hydroxycyclohexyl)-3-methoxybenzamide]
1 to 2.51 | COc1cc(C(=O)NC2CN(C)C2)ccc1Nc1ncc2c(n1)N(C1CCCC1)CC1(CC1)C(=O)N2C [Compound 163, 4-(9′-cyclopentyl-5′-methyl-6′-oxo-5′,6′,8′,9′-tetrahydrospiro[cyclopropane-1,7′-pyrimido[4,5-b][1,4]diazepine]-2′-ylamino)-3-methoxy-N-(1-methylazetidin-3-yl)benzamide]
> 10 | COc1cc(C(=O)NCC2CCN(C)CC2)ccc1Nc1ncc2c(n1)N(C1CCCC1)CC(C)(C)C(=O)N2C [Compound 88]
< 1 | C/C=C\CC1CN(C2CCCC2)c2nc(Nc3ccc(C(=O)NC4CCN(C)CC4)cc3OC)ncc2N(C)C1=O (stereo not drawn) [Compound 218, (Z)-4-(7-(but-2-enyl)-9-cyclopentyl-5-methyl-6-oxo-6,7,8,9-tetrahydro-5H-pyrimido[4,5-b][1,4]diazepin-2-ylamino)-3-methoxy-N-(1-methylpiperidin-4-yl)benzamide]
> 10 | COc1cc(C(=O)NC[C@H]2CCCN2)ccc1Nc1ncc2c(n1)N(C1CCCC1)CCC(=O)N2C [Compound 62, (R)-4-(9-cyclopentyl-5-methyl-6-oxo-6,7,8,9-tetrahydro-5H-pyrimido[4,5-b][1,4]diazepin-2-ylamino)-3-methoxy-N-(pyrrolidin-2-ylmethyl)benzamide]
3.16 to 10 | C=C[C@]1(C)CN(C2CCCC2)c2nc(Nc3ccc(C(=O)NC4CCN(C)CC4)cc3OC)ncc2N(C)C1=O [Compound 240, (R)-4-(9-cyclopentyl-5,7-dimethyl-6-oxo-7-vinyl-6,7,8,9-tetrahydro-5H-pyrimido[4,5-b][1,4]diazepin-2-ylamino)-3-methoxy-N-(1-methylpiperidin-4-yl)benzamide]
3.16 to 10 | CC[C@@]1(C)CN(C2CCCC2)c2nc(Nc3ccc(C(=O)N[C@@H]4CCCNC4)cc3OC)ncc2N(C)C1=O [Compound 134, 4-((S)-9-cyclopentyl-7-ethyl-5,7-dimethyl-6-oxo-6,7,8,9-tetrahydro-5H-pyrimido[4,5-b][1,4]diazepin-2-ylamino)-3-methoxy-N-((R)-piperidin-3-yl)benzamide]
3.16 to 10 | COc1cc(C(=O)NC2CN(C)C2)ccc1Nc1ncc2c(n1)N(C1CCCC1)CCC(=O)N2C [Compound 47, 4-(9-cyclopentyl-5-methyl-6-oxo-6,7,8,9-tetrahydro-5H-pyrimido[4,5-b][1,4]diazepin-2-ylamino)-3-methoxy-N-(1-methylazetidin-3-yl)benzamide]
< 1 | COc1cc(C(=O)N[C@H]2CCCN(C)C2)ccc1Nc1ncc2c(n1)N(C1CCCC1)CC(C)(C)C(=O)N2C [Compound 99, (S)-4-(9-cyclopentyl-5,7,7-trimethyl-6-oxo-6,7,8,9-tetrahydro-5H-pyrimido[4,5-b][1,4]diazepin-2-ylamino)-3-methoxy-N-(1-methylpiperidin-3-yl)benzamide]
1 to 2.51 | COc1cc(C(=O)NN2CCN(C)CC2)ccc1Nc1ncc2c(n1)N(C1CCCC1)CC1(CC1)C(=O)N2C [Compound 168, 4-(9′-cyclopentyl-5′-methyl-6′-oxo-5′,6′,8′,9′-tetrahydrospiro[cyclopropane-1,7′-pyrimido[4,5-b][1,4]diazepine]-2′-ylamino)-3-methoxy-N-(4-methylpiperazin-1-yl)benzamide]
< 1 | COc1cc(C(=O)N[C@H]2CCCN(C)C2)ccc1Nc1ncc2c(n1)N(C1CCCCC1)CC1(CC1)C(=O)N2C [Compound 171, (S)-4-(9′-cyclohexyl-5′-methyl-6′-oxo-5′,6′,8′,9′-tetrahydrospiro[cyclopropane-1,7′-pyrimido[4,5-b][1,4]diazepine]-2′-ylamino)-3-methoxy-N-(1-methylpiperidin-3-yl)-benzamide]
< 1 | C=CC[C@H]1CN(C2CCCC2)c2nc(Nc3ccc(C(=O)NN4CCN(C)CC4)cc3OC)ncc2N(C)C1=O [Compound 206, (S)-4-(7-allyl-9-cyclopentyl-5-methyl-6-oxo-6,7,8,9-tetrahydro-5H-pyrimido[4,5-b][1,4]diazepin-2-ylamino)-3-methoxy-N-(4-methylpiperazin-1-yl)benzamide]
> 10 | COc1cc(C(=O)N[C@@H]2CCNC2)ccc1Nc1ncc2c(n1)N(C1CCCC1)CCC(=O)N2C [Compound 41, (R)-4-(9-cyclopentyl-5-methyl-6-oxo-6,7,8,9-tetrahydro-5H-pyrimido[4,5-b][1,4]diazepin-2-ylamino)-3-methoxy-N-(pyrrolidin-3-yl)benzamide]
> 10 | COc1cc(C(=O)N[C@@H]2CCCNC2)ccc1Nc1ncc2c(n1)N(C1CCCC1)CCC(=O)N2C [Compound 49, (R)-4-(9-cyclopentyl-5-methyl-6-oxo-6,7,8,9-tetrahydro-5H-pyrimido[4,5-b][1,4]diazepin-2-ylamino)-3-methoxy-N-(piperidin-3-yl)benzamide]
< 1 | C=C[C@]1(C)CN(C2CCCC2)c2nc(Nc3ccc(C(=O)NN4CCN(C)CC4)cc3OC)ncc2N(C)C1=O [Compound 243, (R)-4-(9-cyclopentyl-5,7-dimethyl-6-oxo-7-vinyl-6,7,8,9-tetrahydro-5H-pyrimido[4,5-b][1,4]diazepin-2-ylamino)-3-methoxy-N-(4-methylpiperazin-1-yl)benzamide]

The remaining lines, values behind:

SMILES | IC50 [nM]
CC[C@@]1(C)CN(C2CCCC2)c2nc(Nc3ccc(C(=O)NC4CN(C)C4)cc3OC)ncc2N(C)C1=O [Compound 132, (S)-4-(9-cyclopentyl-7-ethyl-5,7-dimethyl-6-oxo-6,7,8,9-tetrahydro-5H-pyrimido[4,5-b][1,4]diazepin-2-ylamino)-3-methoxy-N-(1-methylazetidin-3-yl)benzamide] | 3.16 to 10
COc1cc(C(=O)NC2CCN(C(C)=O)CC2)ccc1Nc1ncc2c(n1)N(C1CCCC1)CCC(=O)N2C [Compound 39, N-(1-acetylpiperidin-4-yl)-4-(9-cyclopentyl-5-methyl-6-oxo-6,7,8,9-tetrahydro-5H-pyrimido[4,5-b][1,4]diazepin-2-ylamino)-3-methoxybenzamide] | 1 to 2.51
COc1cc(C(=O)NC2CCN(C)CC2)ccc1Nc1ncc2c(n1)N(C1CCCCC1)CC(C1CC1)C(=O)N2C (stereo not drawn) [Compound 156, 4-(9-cyclohexyl-7-cyclopropyl-5-methyl-6-oxo-6,7,8,9-tetrahydro-5H-pyrimido[4,5-b][1,4]diazepin-2-ylamino)-3-methoxy-N-(1-methylpiperidin-4-yl)benzamide] | > 10
C=CCC1CN(C2CCCCC2)c2nc(Nc3ccc(C(=O)NC4CN(C)C4)cc3OC)ncc2N(C)C1=O (stereo not drawn) [Compound 225, 4-(7-allyl-9-cyclohexyl-5-methyl-6-oxo-6,7,8,9-tetrahydro-5H-pyrimido[4,5-b][1,4]diazepin-2-ylamino)-3-methoxy-N-(1-methylazetidin-3-yl)benzamide] | 3.16 to 10
COc1cc(C(=O)NCc2ccccn2)ccc1Nc1ncc2c(n1)N(C1CCCC1)CCC(=O)N2C [Compound 69, 4-(9-cyclopentyl-5-methyl-6-oxo-6,7,8,9-tetrahydro-5H-pyrimido[4,5-b][1,4]diazepin-2-ylamino)-3-methoxy-N-(pyridin-2-ylmethyl)benzamide] | 3.16 to 10
C=CC[C@H]1CN(C2CCCC2)c2nc(Nc3ccc(C(=O)N[C@@H]4CCN(C)C4)cc3OC)ncc2N(C)C1=O [Compound 204, 4-((S)-7-allyl-9-cyclopentyl-5-methyl-6-oxo-6,7,8,9-tetrahydro-5H-pyrimido[4,5-b][1,4]diazepin-2-ylamino)-3-methoxy-N-((R)-1-methylpyrrolidin-3-yl)benzamide] | 1 to 2.51
COc1cc(C(=O)N[C@@H]2CCCNC2)ccc1Nc1ncc2c(n1)N(C1CCCCC1)CC(C)(C)C(=O)N2C [Compound 110, (R)-4-(9-cyclohexyl-5,7,7-trimethyl-6-oxo-6,7,8,9-tetrahydro-5H-pyrimido[4,5-b][1,4]diazepin-2-ylamino)-3-methoxy-N-(piperidin-3-yl)benzamide] | 1 to 2.51
COc1cc(C(=O)NCCCN(C)C)ccc1Nc1ncc2c(n1)N(C1CCCC1)CC(C)(C)C(=O)N2C [Compound 89, 4-(9-cyclopentyl-5,7,7-trimethyl-6-oxo-6,7,8,9-tetrahydro-5H-pyrimido[4,5-b][1,4]diazepin-2-ylamino)-N-(3-(dimethylamino)propyl)-3-methoxybenzamide] | 3.16 to 10
